Laboratory results reported in ChEMBL document CHEMBL4619726, “Synthesis of novel tryptanthrin derivatives as dual inhibitors of indoleamine 2,3-dioxygenase 1 and tryptophan 2,3-dioxygenase” (Bioorg Med Chem Lett, 2020).
pIC50: −log10 of the molar value. Values after ≈ are worked out from the molar mass of the structure shown.

Assays:
[1] = molecular target: T1, Tryptophan 2,3-dioxygenase (Homo sapiens, UniProt P48775); test: Inhibition of recombinant human TDO expressed in Escherichia coli BL21 using L-Trp as substrate incubated for 30 mins by enzymatic assay
Target sequence in this assay (P48775 whole entry): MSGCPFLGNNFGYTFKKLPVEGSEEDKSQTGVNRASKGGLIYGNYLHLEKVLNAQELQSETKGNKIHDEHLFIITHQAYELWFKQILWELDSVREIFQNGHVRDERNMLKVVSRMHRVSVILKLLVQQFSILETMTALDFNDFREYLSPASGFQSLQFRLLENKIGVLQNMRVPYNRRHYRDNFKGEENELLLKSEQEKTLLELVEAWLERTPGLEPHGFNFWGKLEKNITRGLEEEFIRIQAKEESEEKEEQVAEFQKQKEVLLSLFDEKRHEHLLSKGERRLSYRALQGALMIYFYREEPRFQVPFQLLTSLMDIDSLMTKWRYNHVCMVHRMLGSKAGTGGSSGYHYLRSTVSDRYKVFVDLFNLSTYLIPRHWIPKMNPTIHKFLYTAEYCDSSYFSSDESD

[2] = Solubility of compound in water; assay type: physicochemical
[3] = molecular target: T2, Indoleamine 2,3-dioxygenase 1 (Homo sapiens, UniProt P14902); test: Inhibition of IDO1 (unknown origin)
T2 sequence (P14902 whole entry): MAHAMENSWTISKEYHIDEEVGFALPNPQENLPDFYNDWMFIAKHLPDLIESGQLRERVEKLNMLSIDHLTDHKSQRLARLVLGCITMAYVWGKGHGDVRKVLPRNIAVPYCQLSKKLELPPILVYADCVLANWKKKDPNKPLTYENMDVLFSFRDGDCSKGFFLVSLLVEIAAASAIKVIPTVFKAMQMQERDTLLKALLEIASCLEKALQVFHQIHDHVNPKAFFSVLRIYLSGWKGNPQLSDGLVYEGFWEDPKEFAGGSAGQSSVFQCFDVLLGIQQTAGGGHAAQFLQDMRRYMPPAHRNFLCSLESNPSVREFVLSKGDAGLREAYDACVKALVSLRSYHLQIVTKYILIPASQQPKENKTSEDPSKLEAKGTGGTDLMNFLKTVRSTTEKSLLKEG

[4] = molecular target: T2, Indoleamine 2,3-dioxygenase 1; test: Inhibition of IDO1 in human HeLa cells; assay type: cell-based
[5] = molecular target: T1, Tryptophan 2,3-dioxygenase; test: Potency index, ratio of IC50 of 8-fluorotryptanthrin to IC50 of compound for inhibition of TDO (unknown origin)
Target sequence in this assay (P48775 whole entry, looked up): as the sequence (P48775 whole entry) above

[6] = molecular target: T1, Tryptophan 2,3-dioxygenase; test: Potency index, ratio of IC50 of LM10 to IC50 of compound for inhibition of TDO (unknown origin)
Target sequence in this assay (P48775 whole entry, looked up): as the sequence (P48775 whole entry) above

| Compound | pIC50 [1] | solubility [2] [µg/mL] | pIC50 [3] | pIC50 [4] | Ratio IC50 [5] | Ratio IC50 [6] |
| --- | --- | --- | --- | --- | --- | --- |
| O=C1c2cc(F)ccc2-n2c1nc1ccc(B(O)O)cc1c2=O | 5.92 | 0.69 (≈ 2.23 µM) | 5.75 | 6.64 | – | – |
| COC(=O)C1CCCN(Cc2ccc3nc4n(c(=O)c3c2)-c2ccc(F)cc2C4=O)C1 (stereo not drawn) | 5.54 | 1.09 (≈ 2.58 µM) | 5.84 | 6.43 | – | – |
| CC1(C)OB(c2ccc3nc4n(c(=O)c3c2)-c2ccc(F)cc2C4=O)OC1(C)C | 5.22 | 0.625 (≈ 1.59 µM) | 4.88 | 6.12 | – | – |
| COC(=O)C1CCN(Cc2ccc3nc4n(c(=O)c3c2)-c2ccc(F)cc2C4=O)CC1 | 6.00 | 1.05 (≈ 2.5 µM) | 5.92 | 6.82 | – | – |
| O=C1c2cc(F)ccc2-n2c1nc1ccc(Cn3ccnn3)cc1c2=O | 5.95 | 1.28 (≈ 3.69 µM) | 6.11 | 7.10 | – | – |
| O=C1c2cc(F)ccc2-n2c1nc1ccccc1c2=O | – | 0.741 (≈ 2.78 µM) | – | – | – | – |

Now from value to compound:

| pIC50 [1] | solubility [2] [µg/mL] | pIC50 [3] | pIC50 [4] | Ratio IC50 [5] | Ratio IC50 [6] | Compound |
| --- | --- | --- | --- | --- | --- | --- |
| 6.38 | 14.3 (≈ 35.1 µM) | 6.24 | 5.74 | – | – | O=C1c2cc(F)ccc2-n2c1nc1ccc(CN3CCCC(C(=O)O)C3)cc1c2=O (stereo not drawn) |
| 6.74 | 15.4 (≈ 39.1 µM) | 6.26 | 5.42 | – | – | O=C1c2cc(F)ccc2-n2c1nc1ccc(CN3CCCC3C(=O)O)cc1c2=O (stereo not drawn) |
| 6.43 | 0.735 (≈ 2.02 µM) | 6.72 | 7.70 | – | – | CCOC(=O)/C=C/c1ccc2nc3n(c(=O)c2c1)-c1ccc(F)cc1C3=O |
| 6.52 | 0.893 (≈ 2.19 µM) | 6.34 | 6.15 | – | – | COC(=O)C1CCCN1Cc1ccc2nc3n(c(=O)c2c1)-c1ccc(F)cc1C3=O (stereo not drawn) |
| 7.22 | 0.862 (≈ 2.93 µM) | 6.34 | 6.80 | 16 | 193 | O=Cc1ccc2nc3n(c(=O)c2c1)-c1ccc(F)cc1C3=O |
| 6.35 | 16.7 (≈ 40.9 µM) | 6.32 | 5.51 | – | – | O=C1c2cc(F)ccc2-n2c1nc1ccc(CN3CCC(C(=O)O)CC3)cc1c2=O |
| 7.52 | 1.12 (≈ 3.34 µM) | 6.92 | 7.22 | 32 | 386 | O=C(O)/C=C/c1ccc2nc3n(c(=O)c2c1)-c1ccc(F)cc1C3=O |
